Reference: ChEMBL document CHEMBL1139205, “Newer tetracycline derivatives: synthesis, anti-HIV, antimycobacterial activities and inhibition of HIV-1 integrase” (Bioorg Med Chem Lett, 2007)
≈ marks a conversion by molar mass, not a printed value.

Experiments:
[1] = target: T1, Human immunodeficiency virus type 1 integrase (Human immunodeficiency virus 1, UniProt Q7ZJM1); assay: Inhibition of HIV1 recombinant integrase 3'-processing activity
[2] = test system: Mycobacterium tuberculosis; assay: Antimycobacterial activity against Mycobacterium tuberculosis by agar dilution method; assay type: functional
[3] = target: T1, Human immunodeficiency virus type 1 integrase; assay: Inhibition of HIV1 recombinant integrase strand transfer activity
[4] = Cytotoxicity against CEM cells after 5 days by MTT method; assay type: cell-based; settings: human, CCRF-CEM (CEM) cells
[5] = test system: Human immunodeficiency virus 1; assay: Antiviral activity against HIV1 3B in CEM cells assessed as inhibition of viral-induced cytopathicity; assay type: functional, organism-based; settings: Human immunodeficiency virus 1, 3B, CCRF-CEM
[6] = Selectivity index, ratio of CC50 for CEM cells to EC50 for HIV1 3B; assay type: functional, CCRF-CEM

T1 sequence (Q7ZJM1 whole entry): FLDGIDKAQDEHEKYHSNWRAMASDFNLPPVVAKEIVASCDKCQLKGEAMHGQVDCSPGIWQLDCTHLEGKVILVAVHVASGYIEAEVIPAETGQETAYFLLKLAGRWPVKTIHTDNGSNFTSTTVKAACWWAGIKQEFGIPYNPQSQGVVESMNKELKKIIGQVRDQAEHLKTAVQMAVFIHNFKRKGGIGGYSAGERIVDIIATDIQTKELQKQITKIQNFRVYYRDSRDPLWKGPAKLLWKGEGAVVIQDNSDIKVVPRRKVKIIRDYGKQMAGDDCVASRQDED

Row | SMILES | IC50 [1] [µM] | MIC [2] [µg/mL] | IC50 [3] [µM] | CC50 at 120 h [4] [µM] | EC50 [5] [µM] | Ratio CC50/EC50 [6]
1 | CN(C)[C@@H]1C(O)=C(C(=O)NCN2CCN(c3cc4c(cc3F)c(=O)c(C(=O)O)cn4C3CC3)CC2)C(=O)[C@@]2(O)C(O)=C3C(=O)c4c(O)cccc4[C@@](C)(O)[C@H]3[C@H](O)[C@@H]12 | 38 | 0.39 (≈ 0.485 µM) | 17 | 17.7 | > 17.7 | 
2 | CCn1cc(C(=O)O)c(=O)c2cc(F)c(N3CCN(CNC(=O)C4=C(O)[C@@H](N(C)C)[C@@H]5C[C@@H]6Cc7c(N(C)C)ccc(O)c7C(=O)C6=C(O)[C@]5(O)C4=O)C(C)C3)c(F)c21 (stereo not given in full) | 20 | 0.2 (≈ 0.244 µM) | 18 | > 200 | 5.2 | >38
3 | COc1c(N2CCN(CNC(=O)C3=C(O)[C@@H](N(C)C)[C@@H]4C[C@@H]5Cc6c(N(C)C)ccc(O)c6C(=O)C5=C(O)[C@]4(O)C3=O)C(C)C2)c(F)cc2c(=O)c(C(=O)O)cn(C3CC3)c12 (stereo not given in full) |  | 0.2 (≈ 0.237 µM) |  | 126 | > 126 | 
4 | CCn1cc(C(=O)O)c(=O)c2cc(F)c(N3CCN(CNC(=O)C4=C(O)[C@@H](N(C)C)[C@@H]5[C@@H](O)[C@H]6C(=C(O)[C@]5(O)C4=O)C(=O)c4c(O)cccc4[C@@]6(C)O)C(C)C3)c(F)c21 (stereo not given in full) |  | 0.78 (≈ 0.947 µM) |  | 37.4 | 15.1 | 
5 | CN(C)[C@@H]1C(O)=C(C(=O)NCN2CCN(c3cc4c(cc3F)c(=O)c(C(=O)O)cn4C3CC3)CC2)C(=O)[C@@]2(O)C(O)=C3C(=O)c4c(O)cccc4[C@@](C)(O)[C@H]3C[C@@H]12 | 20 | 0.39 (≈ 0.495 µM) | 12 | 141 | 8.4 | 
6 | COc1c(N2CCN(CNC(=O)C3=C(O)[C@@H](N(C)C)[C@@H]4[C@@H](O)[C@H]5C(=C(O)[C@]4(O)C3=O)C(=O)c3c(O)cccc3[C@@]5(C)O)C(C)C2)c(F)cc2c(=O)c(C(=O)O)cn(C3CC3)c12 (stereo not given in full) | 28 | 0.39 (≈ 0.46 µM) | 13.5 | 28.9 | > 28.9 | 
7 | CCn1cc(C(=O)O)c(=O)c2cc(F)c(N3CCN(CNC(=O)C4=C(O)[C@@H](N(C)C)[C@@H]5C[C@@H]6Cc7c(N(C)C)ccc(O)c7C(=O)C6=C(O)[C@]5(O)C4=O)CC3)cc21 |  | 0.78 (≈ 0.989 µM) |  | 130 | > 130 | 
8 | CN(C)c1ccc(O)c2c1C[C@H]1C[C@H]3[C@H](N(C)C)C(O)=C(C(=O)NCN4CCN(c5cc6c(cc5F)c(=O)c(C(=O)O)cn6C5CC5)CC4)C(=O)[C@@]3(O)C(O)=C1C2=O |  | 0.78 (≈ 0.974 µM) |  | 120 | > 120 | 
9 | CCn1cc(C(=O)O)c(=O)c2cc(F)c(N3CCN(CNC(=O)C4=C(O)[C@@H](N(C)C)[C@@H]5C[C@H]6C(=C(O)[C@]5(O)C4=O)C(=O)c4c(O)cccc4[C@@]6(C)O)C(C)C3)c(F)c21 (stereo not given in full) | 65 | 1.56 (≈ 1.93 µM) | 44 | > 200 | 7.58 | 
10 | COc1c(N2CCN(CNC(=O)C3=C(O)[C@@H](N(C)C)[C@@H]4C[C@H]5C(=C(O)[C@]4(O)C3=O)C(=O)c3c(O)cccc3[C@@]5(C)O)C(C)C2)c(F)cc2c(=O)c(C(=O)O)cn(C3CC3)c12 (stereo not given in full) |  | 0.2 (≈ 0.24 µM) |  | 140 | 20.2 | 
11 | CCn1cc(C(=O)O)c(=O)c2cc(F)c(N3CCN(CNC(=O)C4=C(O)[C@@H](N(C)C)[C@@H]5[C@@H](O)[C@H]6C(=C(O)[C@]5(O)C4=O)C(=O)c4c(O)cccc4[C@@]6(C)O)CC3)cc21 | 21 | 0.78 (≈ 0.985 µM) | 12 | 40 | 12.2 | 
12 | CCn1cc(C(=O)O)c(=O)c2cc(F)c(N3CCN(CNC(=O)C4=C(O)[C@@H](N(C)C)[C@@H]5C[C@H]6C(=C(O)[C@]5(O)C4=O)C(=O)c4c(O)cccc4[C@@]6(C)O)CC3)cc21 | 20 | 0.78 (≈ 1.01 µM) | 13 | 131 | 14.6 | 
13 | CCn1cc(C(=O)O)c(=O)c2cc(F)c(N3CCNC(C)C3)c(F)c21 (stereo not given) [LOMEFLOXACIN] |  | 6.25 (≈ 17.8 µM) |  |  |  | 
14 | CN(C)c1ccc(O)c2c1C[C@H]1C[C@H]3[C@H](N(C)C)C(O)=C(C(N)=O)C(=O)[C@@]3(O)C(O)=C1C2=O [MINOCYCLINE] |  | > 6.25 |  | 52.1 | > 52.1 | 
15 | CN(C)[C@@H]1C(O)=C(C(=O)NCN2CCCC2)C(=O)[C@@]2(O)C(O)=C3C(=O)c4c(O)cccc4[C@@](C)(O)[C@H]3C[C@@H]12 [ROLITETRACYCLINE] | 28 | > 6.25 | 34 | 45.5 | > 45.5 | 
16 | CN(C)[C@@H]1C(O)=C(C(N)=O)C(=O)[C@@]2(O)C(O)=C3C(=O)c4c(O)cccc4[C@@](C)(O)[C@H]3C[C@@H]12 [TETRACYCLINE] | 204 | > 6.25 | 188 | 40.5 | > 40.5 | 
